Experimental data published in patent publication US9862712B2, “Benzimidazole based EGFR inhibitors” (COUNCIL OF SCIENTIFIC & INDUSTRIAL RESEARCH, priority 2014, dated 2018).
“Also recorded” adds a separate entry of the source.

Experiments:
HOP-62 Cell line = experiment: MTT cell proliferation assay, HOP-62 Cell line; type: cell-based; settings: for viability at 0.01 µM / viability at 0.1 µM / viability at 2.5 µM / viability at 5 µM / viability at 10 µM: Homo sapiens, 72 h, MTT; for viability at 0.01 µM: HOP-62, 0.01 μM; for viability at 0.1 µM: HOP-62, 0.1 μM; for viability at 2.5 µM: HOP-62, 2.5 μM; for viability at 5 µM: HOP-62, 5 μM; for viability at 10 µM: HOP-62, 10 μM
Procedure: (§1) 1. Protocol Followed for Anti Cancer Activity and Results, Cell Proliferation Assays: Cell lines used herein were purchased from NCCS (National Center for Cell Sciences) Pune, India. Invitro Activity was performed in NCL (National Chemical Laboratory) Pune. Each cell line was plated in 96-well microtiter plates (10,000 cells per well), and serial dilutions of indicated compounds were added. At the end of the incubation period (72 h at 37° C.), cell viability was determined by a tetrazolium dye, MTT (3-(4,5-dimethylthiazol-2-yl)-2,5-diphenyl tetrazolium bromide) (Promega, USA). The formazan crystals were dissolved in DMSO, and the absorbance at 600 nm was recorded using an ELISA plate reader. IC50 values were calculated using nonlinear regression and defined as the concentration needed for a 50% reduction in absorbance of treated versus untreated control cells.
By using the above procedure, the compounds of the invention were tested on HOP-62 Cell line and the results obtained are presented below in table 6, Refer FIG. 3.

MCF-7 Cell line = experiment: MTT cell proliferation assay, MCF-7 Cell line; type: cell-based; settings: for viability at 0.01 µM / viability at 0.1 µM / viability at 2.5 µM / viability at 5 µM / viability at 10 µM: Homo sapiens, MCF7, 72 h, MTT; for viability at 0.01 µM: MCF-7, 0.01 μM; for viability at 0.1 µM: MCF-7, 0.1 μM; for viability at 2.5 µM: MCF-7, 2.5 μM; for viability at 5 µM: MCF-7, 5 μM; for viability at 10 µM: MCF-7, 10 μM
Procedure: as §1
Table 4 indicates anticancer activity against A549 Cell line. The Gefitinib was used as standard and % cell Viable was measured compared to control. The procedure used was MTT assay as mentioned. […] By using the above procedure, the compounds of the invention were tested on MCF-7 Cell line and the results obtained are presented below in table 5, Refer FIG. 2.

[1] = test system: U87MG Cell line (Glioblastoma cell line); experiment: MTT cell proliferation assay, U87MG Cell line; type: cell-based; settings: for viability at 0.01 µM / viability at 0.1 µM / viability at 2.5 µM / viability at 5 µM / viability at 10 µM: Homo sapiens, U-87 MG, U87MG, 72 h, MTT
Procedure: as §1
By using the above procedure, the compounds of the invention were tested on U87MG Cell line (glioblastoma cell line) and the results obtained are presented below in table 8, Refer FIG. 5.

Log P (Table 3) = type: physicochemical; settings: no method given
MDA-MB-436 Cell line = experiment: MTT cell proliferation assay, MDA-MB-436 Cell line; type: cell-based; settings: for viability at 0.01 µM / viability at 0.1 µM / viability at 2.5 µM / viability at 5 µM / viability at 10 µM: Homo sapiens, 72 h, MTT; for viability at 0.01 µM: MDA-MB-436, 0.01 μM; for viability at 0.1 µM: MDA-MB-436, 0.1 μM; for viability at 2.5 µM: MDA-MB-436, 2.5 μM; for viability at 5 µM: MDA-MB-436, 5 μM; for viability at 10 µM: MDA-MB-436, 10 μM
Procedure: as §1
By using the above procedure, the compounds of the invention were tested on MDA-MB-436 Cell line and the results obtained are presented below in table 7, Refer FIG. 4.

[2] = test system: A549 Cell line (Lung Cancer Cell line); experiment: MTT cell proliferation assay, A549 Cell line; type: cell-based, human; settings: for viability at 0.01 µM / viability at 0.1 µM / viability at 2.5 µM / viability at 5 µM / viability at 10 µM: Homo sapiens, 72 h, MTT; for viability at 0.01 µM: A549, 0.01 μM; for viability at 0.1 µM: A549, 0.1 μM; for viability at 2.5 µM: A549, 2.5 μM; for viability at 5 µM: A549, 5 μM; for viability at 10 µM: A549, 10 μM
Procedure: as §1
By using the above procedure, the compounds of the invention were tested on A549 Cell line and the results obtained are presented below in table 4, Refer FIG. 1.

[3] = compared among 15 molecules and with Gefitinib, listed as M1

SMILES	viability at 0.01 µM (HOP-62 Cell line)	viability at 0.1 µM (HOP-62 Cell line)	viability at 2.5 µM (HOP-62 Cell line)	viability at 5 µM (HOP-62 Cell line)	viability at 10 µM (HOP-62 Cell line)	viability at 0.01 µM (MCF-7 Cell line)	viability at 0.1 µM (MCF-7 Cell line)	viability at 2.5 µM (MCF-7 Cell line)	viability at 5 µM (MCF-7 Cell line)	viability at 10 µM (MCF-7 Cell line)	viability at 0.01 µM [1]	viability at 0.1 µM [1]	viability at 2.5 µM [1]	viability at 5 µM [1]	viability at 10 µM [1]	viability at 0.01 µM (MDA-MB-436 Cell line)	viability at 0.1 µM (MDA-MB-436 Cell line)	viability at 2.5 µM (MDA-MB-436 Cell line)	viability at 5 µM (MDA-MB-436 Cell line)	viability at 10 µM (MDA-MB-436 Cell line)	further results
Nc1nc(Nc2ccccc2)sc1-c1nc2ccccc2[nH]1 [Molecule S4-M1, 5-(1H-benzo[d]imidazol-2-yl)-N^2-phenylthiazole-2,4-diamine]	54.1%	42.1%	34.1%	22.1%	12.9%	69.8%	60.4%	49.1%	42.6%	30.9%	40.8%	32.4%	23.1%	14.6%	8.94%	82.8%	70.4%	67.1%	54.6%	40.9%	melting point: 268 to 270 °C; anticancer activity against HOP-62 Cell line (in words) (HOP-62 Cell line; [3]): most active; also recorded: Invitro activity comparable to standard Gefitinib; anticancer activity against MCF-7 Cell line (in words) (MCF-7 Cell line; compared among 15 molecules, listed as M1): most active; also recorded: showing Invitro activity; anticancer activity against U87-MG Cell line (in words) ([1]; compared among 15 molecules): most active; logP (Log P (Table 3)): 3.02; anticancer activity against MDA-MB-436 Cell line (in words) (MDA-MB-436 Cell line; [3]): most active; also recorded: Invitro activity comparable to standard Gefitinib; viability at 0.01 µM [2]: 49.1%; viability at 0.1 µM [2]: 39.1%; viability at 2.5 µM [2]: 29.1%; viability at 5 µM [2]: 15.1%; viability at 10 µM [2]: 10.9%; anticancer activity against A549 Cell line (in words) ([2]; compared among 15 molecules and with Gefitinib): most active
COc1ccc(Nc2nc(N)c(-c3nc4ccccc4[nH]3)s2)cc1 [Molecule S4-M2, 5-(1H-benzo[d]imidazol-2-yl)-N^2-(4-methoxyphenyl)thiazole-2,4-diamine]	99%	93.5%	85.5%	77.5%	75.5%	97%	95.5%	95.5%	90.5%	84.5%	93%	86.5%	79.5%	68.5%	55.5%	113%	108%	95.5%	93.5%	90.5%	melting point: 224 to 226 °C; logP (Log P (Table 3)): 2.11; viability at 0.01 µM [2]: 95%; viability at 0.1 µM [2]: 89.5%; viability at 2.5 µM [2]: 75.5%; viability at 5 µM [2]: 60.5%; viability at 10 µM [2]: 51.5%
Cc1ccc2[nH]c(-c3sc(Nc4cccc(C(F)(F)F)c4)nc3N)nc2c1 [Molecule S4-M13, N^2-(3-(trifluoromethyl)phenyl)-5-(5-methyl-1H-benzo[d]imidazol-2-yl)thiazole-2,4-diamine]	99.4%	96.9%	90.4%	80.6%	75.6%	99.4%	92.9%	81.4%	72.6%	66.9%	95.8%	83.7%	71.2%	60.8%	53.8%	98.4%	96.9%	97.4%	97.6%	97.9%	viability at 0.01 µM [2]: 99.4%; viability at 0.1 µM [2]: 82.9%; viability at 2.5 µM [2]: 73.6%; viability at 5 µM [2]: 61.6%; viability at 10 µM [2]: 50.6%
Cc1ccc(Nc2nc(N)c(-c3nc4cc(C)ccc4[nH]3)s2)cc1 [Molecule S4-M14, 5-(5-methyl-1H-benzo[d]imidazol-2-yl)-N2-p-tolylthiazole-2,4-diamine]	101%	95.1%	93.6%	88.3%	80.1%	94%	90.1%	83.6%	69.3%	65.1%	87%	78.1%	67.6%	53.3%	46.1%	99%	98.1%	98.6%	99.3%	94.1%	viability at 0.01 µM [2]: 96%; viability at 0.1 µM [2]: 84.1%; viability at 2.5 µM [2]: 71.1%; viability at 5 µM [2]: 62.1%; viability at 10 µM [2]: 51.1%
COc1ccc(Nc2nc(N)c(-c3nc4c(C)cccc4[nH]3)s2)cc1 [Molecule S4-M15, N^2-(4-methoxyphenyl)-5-(4-methyl-1H-benzo[d]imidazol-2-yl)thiazole-2,4-diamine]	104%	98.7%	92.7%	81.7%	77.3%	92.1%	89.9%	75.7%	70.7%	61.3%	89.1%	82.9%	71.7%	59.7%	48.3%	96.1%	94.9%	90.7%	81.7%	71.3%	viability at 0.01 µM [2]: 93.1%; viability at 0.1 µM [2]: 79.7%; viability at 2.5 µM [2]: 68.3%; viability at 5 µM [2]: 59.3%; viability at 10 µM [2]: 49.3%
